Data taken from PMC8113097 (Bioorganic & medicinal chemistry letters, 2021).
pIC50: −log10 of the molar value.

How the values were obtained:
LDHA [1] = molecular target: T1, LDHA (Homo sapiens, UniProt P00338); assay: LDHA enzyme inhibition; assay type: biochemical; settings: 6g vs 6f
LDHB = LDHB (Homo sapiens, UniProt P07195); assay: LDHB enzyme inhibition; assay type: biochemical
LDHA [2] = molecular target: T1, LDHA; assay: Binding to LDHA by SPR; settings: for SPR τ: residence time on LDHA
Rat microsomal stability = assay type: in vitro ADME; settings: microsomal data
PAMPA permeability = assay type: in vitro ADME
[3] = tested on: A673 Ewing's Sarcoma line; assay: Inhibition of proliferation; assay type: cell-based; settings: A673 cells

Chain of LDHB (P07195 whole entry): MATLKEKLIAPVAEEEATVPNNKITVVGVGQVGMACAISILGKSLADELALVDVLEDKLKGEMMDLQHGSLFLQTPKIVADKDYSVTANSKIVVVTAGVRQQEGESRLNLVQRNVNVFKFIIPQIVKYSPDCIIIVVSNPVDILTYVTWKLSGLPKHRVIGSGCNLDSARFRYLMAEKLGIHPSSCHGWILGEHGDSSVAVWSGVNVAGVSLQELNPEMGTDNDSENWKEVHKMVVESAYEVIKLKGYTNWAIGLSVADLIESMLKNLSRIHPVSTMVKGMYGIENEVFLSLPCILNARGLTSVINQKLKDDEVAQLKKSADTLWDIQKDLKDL

SMILES	fold less potent in LDHA inhibition compared with 6f (LDHA [1])	pIC50 (LDHB)	binding to LDHA by SPR (in words) (LDHA [2])	residence time / dissociation kinetics by SPR (in words) (LDHA [2])	SPR τ (LDHA [2])	metabolic stability (in words) (Rat microsomal stability)	PAMPA Perm (PAMPA permeability)	proliferation IC50 values (in words) [3]
NS(=O)(=O)c1ccc(Cc2cn(-c3nc(C(=O)O)cs3)nc2-c2cccc(OCc3cccnc3)c2)cc1 [6g]	~ 3 fold	–	–	–	–	–	–	–
NS(=O)(=O)c1ccc(Cc2c(-c3ccc(F)c(OCC4CC4(F)F)c3)nn(-c3nc(C(=O)O)cs3)c2CC2CC2)cc1F (centres unmarked) [12b]	–	8.52	very tight binding	long residence times	21,052 s	reasonable	4.9 ×10⁻⁶ cm/s	–
NS(=O)(=O)c1ccc(Cc2c(-c3ccc(F)c(OC4CC4)c3)nn(-c3nc(C(=O)O)cs3)c2CC2CC2)cc1F [12e]	–	8.52	very tight binding	long residence times	19,230 s	reasonable	5.8 ×10⁻⁶ cm/s	–
NS(=O)(=O)c1ccc(Cc2c(-c3cccc(OCc4ccccc4)c3)nn(-c3nc(C(=O)O)cs3)c2CC2CC2)cc1F [12g]	–	8.30	–	–	88,496 s	–	1.1 ×10⁻⁶ cm/s	submicromolar
NS(=O)(=O)c1ccc(Cc2c(-c3ccc(F)c(OCc4cccc(F)c4)c3)nn(-c3nc(C(=O)O)cs3)c2CC2CC2)cc1F [12h]	–	8.30	very tight binding	long residence times	13,568 s	quite poor	2.9 ×10⁻⁶ cm/s	submicromolar
NS(=O)(=O)c1ccc(Cc2c(-c3ccc(F)c(OCc4ccc(C(F)(F)F)o4)c3)nn(-c3nc(C(=O)O)cs3)c2CC2CC2)cc1F [12j]	–	8.22	very tight binding	long residence times	100,000 s	–	12 ×10⁻⁶ cm/s	submicromolar
Cc1ccc(Oc2cc(-c3nn(-c4nc(C(=O)O)cs4)c(CC4CC4)c3Cc3ccc(S(N)(=O)=O)c(F)c3)ccc2F)cc1 [12p]	–	7.72	very tight binding	long residence times	9,708 s	quite poor	13 ×10⁻⁶ cm/s	submicromolar

Next, values leading:

fold less potent in LDHA inhibition compared with 6f (LDHA [1])	pIC50 (LDHB)	binding to LDHA by SPR (in words) (LDHA [2])	residence time / dissociation kinetics by SPR (in words) (LDHA [2])	SPR τ (LDHA [2])	metabolic stability (in words) (Rat microsomal stability)	PAMPA Perm (PAMPA permeability)	proliferation IC50 values (in words) [3]	SMILES
–	8.10	–	faster dissociation kinetics	286 s	–	1.6 ×10⁻⁶ cm/s	–	NS(=O)(=O)c1ccc(Cc2c(-c3cccc(N4CCOCC4)c3)nn(-c3nc(C(=O)O)cs3)c2CC2CC2)cc1F [13a]
–	9.00	–	faster dissociation kinetics	59 s	–	4.4 ×10⁻⁶ cm/s	–	NS(=O)(=O)c1ccc(Cc2c(-c3cccc(Nc4ccccc4)c3)nn(-c3nc(C(=O)O)cs3)c2CC2CC2)cc1 [13h]
–	8.70	–	–	–	good stability	6.4 ×10⁻⁶ cm/s	–	NS(=O)(=O)c1ccc(Cc2c(-c3ccc(F)c(NC(=O)c4ccccc4)c3)nn(-c3nc(C(=O)O)cs3)c2CC2CC2)cc1F [13i]
–	8.40	–	–	–	good stability	5.7 ×10⁻⁶ cm/s	–	NS(=O)(=O)c1ccc(Cc2c(-c3ccc(F)c(C(=O)N4CCCC4)c3)nn(-c3nc(C(=O)O)cs3)c2CC2CC2)cc1F [14b]
–	8.70	–	–	–	–	8.7 ×10⁻⁶ cm/s	–	NS(=O)(=O)c1ccc(Cc2c(-c3ccc(F)c(C(=O)NCc4ccccc4)c3)nn(-c3nc(C(=O)O)cs3)c2CC2CC2)cc1F [14d]
